Here are results for 14 molecules from patent US20190151403A1, “NOVEL CYCLOSPORIN DERIVATIVES AND USES THEREOF” (S&T Global Inc., priority 2016, published 2019).

By EC50 is commonly meant the concentration needed to bring the measured effect to its halfway point.

Experiment [1] relates to HCV replicon in cell line ET (luc-ubi-neo/ET), Huh7 human hepatoma cell line. The experiment in a line: HCV subgenomic replicon assay (luciferase end point). Type of experiment: cell-based. The procedure:
Anti-HCV activity of cyclosporine derivatives were evaluated in the HCV subgenomic replicon assay. The assay use the cell line ET (luc-ubi-neo/ET), which is a Huh7 human hepatoma cell line harboring an HCV replicon with a stable luciferase (Luc) reporter. HCV RNA replication was assessed by quantifying HCV replicon-derived luciferase activity. The antiviral activity of cyclosporine analogs were evaluated after drug treatment to derive EC50 and EC90 values by using the luciferase end point (Krieger, N., et al., 2001, J. Viral. 75, 4614-4624; Pietschmann, T., et al., 2002, J. Viral. 76, 4008-4021; each of which is incorporated herein by reference). Cytotoxicity was assessed in parallel.
(In general: In antiviral work, replicon cells carry a viral genome segment that copies itself.)

In experiment [2] the test system is HCV. As to conditions: reported by Hopkins et al. 2010; read-out: in vitro anti-HCV activity (EC50); cited from earlier work.
For experiment [3], the target named is Cyclophilin D (CyPD) (Homo sapiens, UniProt P30405). Put plainly: Cyclophilin D PPIase inhibition assay. Format: biochemical.
Cyclophilin D (CyPD), sequence (P30405 30-207, species assumed): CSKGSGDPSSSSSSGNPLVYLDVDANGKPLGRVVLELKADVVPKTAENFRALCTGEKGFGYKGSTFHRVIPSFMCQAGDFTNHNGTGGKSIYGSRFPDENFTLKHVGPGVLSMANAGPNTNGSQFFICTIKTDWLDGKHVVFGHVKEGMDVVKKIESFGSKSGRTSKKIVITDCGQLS
The target in experiment [4] is T1, Human recombinant CypA (Homo sapiens, UniProt P62937).
T1 construct: purchased Atgen
T1 sequence (P62937 whole entry): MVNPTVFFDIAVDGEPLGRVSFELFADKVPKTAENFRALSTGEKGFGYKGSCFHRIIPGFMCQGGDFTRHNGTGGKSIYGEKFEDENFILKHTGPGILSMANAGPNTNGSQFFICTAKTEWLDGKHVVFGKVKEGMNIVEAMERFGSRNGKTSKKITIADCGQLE
Put plainly: Cyclophilin A PPIase inhibition, α-chymotrypsin-coupled assay. Type of experiment: biochemical. As to conditions: 10 nM human recombinant CypA, 5° C, succinyl-AAPF-pNA substrate. The procedure: Inhibition of CyPA isomerase activity was assessed using the α-chymotrypsin-coupled assay adapted to a 96-well plate format. Human recombinant CypA (Atgen) was dissolved to 10 nM in isomerase buffer (50 mM Hepes, 100 mM NaCl, 1 mg/ml bovine serum albumin, 1 mg/ml a-chymotrypsin; pH 8). Succinyl-AAPF-pNA peptide substrate (Sigma) was dissolved to 3.2 mM in dried LiCl/trifluoroethanol. […] All solutions were equilibrated, and reactions conducted at 5° C. Reactions were initiated by mixing 95 μL reaction mix with 5 μL peptide preloaded in multiple wells of 96-well plates and measuring OD405 nm in each well at 6-sec intervals for 6 min using a BMG Polarstar Galaxy plate reader. Data were fitted with Graphpad Prism 6.0 to obtain first-order rate constants. Enzyme catalyzed rate constants were calculated by subtracting the rate constant from uncatalyzed reactions (no CypA), and the catalytic rate constants plotted as a function of inhibitor concentration to obtain IC50s (see […] et al., 2015, PLOS ONE).

The target of experiment [5] is cyclophilin A (Homo sapiens, UniProt P62937). As to conditions: published, Gallay et al. 2016; read-out: cyclophilin binding EC50 for cyclophilin A; cited from earlier work.
cyclophilin A, sequence (P62937 whole entry): as above
For experiment [6], the system named is multi-genotype HCV GT1a to 4a. As to conditions: cited from earlier work.
The mark [7] stands for this setting: Hepatitis C virus, Huh-7, read-out: Antiviral activity.
Where [8] appears, read: HCV subgenomic replicon, Huh7 ET cells, luciferase end point, read-out: Antiviral activity.

Where two headings read alike, the source gives them in different places. Starred links: 1 amine or outer side, 2 acyl side, 3 side chain; linkers in the order of their positions; H or OH if unused. Non-standard residues stand in square brackets, D forms with d. Residues, ends and D or L forms follow the SMILES beside them. ξ: configuration not given here. *: point of attachment. NMeThr(4R-Me,4-(CH2)6NHAc) = CN[C@H](C(=O)O)[C@H](O)[C@H](C)CCCCCCNC(C)=O; MeBmt = C/C=C/C[C@@H](C)[C@@H](O)[C@H](NC)C(=O)O; X1 = CCN(CC)CCS[C@H](C(=O)[*:2])N(C)[*:1]; NMeIle(3ξ) = CCC(C)[C@H](NC)C(=O)O; NMeL = CN[C@@H](CC(C)C)C(=O)O; NMeV = CN[C@H](C(=O)O)C(C)C; dNMeC = CN[C@H](CS)C(=O)O; dNMeS = CN[C@H](CO)C(=O)O; dNMeA = CN[C@H](C)C(=O)O; Abu = CC[C@H](N)C(=O)O; Butyl(4-OH) = OCCCC*

For the molecule `CC[C@@H]1NC(=O)[C@H]([C@H](O)[C@H](C)CCCCCCNC(C)=O)N(C)C(=O)[C@H](C(C)C)N(C)C(=O)[C@H](CC(C)C)N(C)C(=O)[C@H](CC(C)C)N(C)C(=O)[C@@H](C)NC(=O)[C@H](C)NC(=O)[C@H](CC(C)C)N(C)C(=O)[C@H](C(C)C)NC(=O)[C@H](CC(C)(C)O)N(C)C(=O)CN(C)C1=O` [[8-(2-Acetamidoethyl)-6,7-dihydro-MeBmt]-1-[(γ-hydroxy)-N-MeLeu]-4-cyclosporin], in experiment [1] (setting [7]), the IC50 is less than 35 nM.
As to `C/C=C/C[C@@H](C)[C@@H](O)[C@H]1C(=O)N[C@@H](CC)C(=O)N(C)[C@H](SCCN(C)C)C(=O)N(C)[C@@H](CC(C)(C)O)C(=O)N[C@@H](C(C)C)C(=O)N(C)[C@@H](CC(C)C)C(=O)N[C@@H](C)C(=O)N[C@H](C)C(=O)N(C)[C@@H](CC(C)C)C(=O)N(C)[C@@H](CC(C)C)C(=O)N(C)[C@@H](C(C)C)C(=O)N1C` [SCY-635], the EC50 in experiment [2] is 100 nM.
For the molecule `C/C=C/C[C@@H](C)[C@@H](O)[C@H]1C(=O)N[C@@H](CC)C(=O)N(C)[C@H](SCCN(C)C)C(=O)N(C)[C@@H](CC(C)(C)O)C(=O)N[C@@H](C(C)C)C(=O)N(C)[C@@H](CC(C)C)C(=O)N[C@@H](C)C(=O)N[C@H](C)C(=O)N(C)[C@@H](CC(C)C)C(=O)N(C)[C@@H](CC(C)C)C(=O)N(C)[C@@H](C(C)C)C(=O)N1C`, the EC50 in experiment [3] lay in the range of 4 to 10 nM. The IC50 in experiment [1] (setting [7]) was 35 to 90 nM.
`C/C=C/C[C@@H](C)[C@@H](O)[C@H]1C(=O)N[C@@H](CC)C(=O)N(C)CC(=O)N(C)[C@@H](C(C)C)C(=O)N[C@@H](C(C)C)C(=O)N(C)[C@@H](CC(C)C)C(=O)N[C@@H](C)C(=O)N[C@H](C)C(=O)N(C)[C@@H](CC(C)C)C(=O)N(C)[C@@H](CC(C)C)C(=O)N(C)[C@@H](C(C)C)C(=O)N1C` [[N-MeVal]-4-cyclosporin (SDZ 220-384), N-MeVal-4-Cyclosporin]: the IC50 in experiment [1] (setting [8]) was 90 to 250 nM.
The molecule `CC[C@@H]1NC(=O)[C@H]([C@H](O)[C@H](C)CCCCCCNC(C)=O)N(C)C(=O)[C@H](C(C)C)N(C)C(=O)[C@H](CC(C)C)N(C)C(=O)[C@H](CC(C)C)N(C)C(=O)[C@@H](C)NC(=O)[C@H](C)NC(=O)[C@H](CC(C)C)N(C)C(=O)[C@H](C(C)C)NC(=O)[C@H](CC(C)C)N(C)C(=O)[C@@H](CSCCCCO)N(C)C1=O` [[8-(2-Acetamidoethyl)-6,7-dihydro-MeBmt]-1-[(S)-(4-hydroxybutylthio)methyl-Sar]-3-cyclosporin] (cyclo(A[dA][NMeL][NMeL][NMeV][NMeThr(4R-Me,4-(CH2)6NHAc)][Abu][dNMeC](Butyl(4-OH))[NMeL]V[NMeL])) gave an EC50 in experiment [3] of less than 4 nM. In addition, the IC50 in experiment [1] (setting [7]) is less than 35 nM; in experiment [4], less than 4 nM.
Consider `CC[C@@H]1NC(=O)[C@H]([C@H](O)[C@H](C)CCCCCCNC(C)=O)N(C)C(=O)[C@H](C(C)C)N(C)C(=O)[C@H](CC(C)C)N(C)C(=O)[C@H](CC(C)C)N(C)C(=O)[C@@H](C)NC(=O)[C@H](C)NC(=O)[C@H](CC(C)C)N(C)C(=O)[C@H](C(C)C)NC(=O)[C@H](CC(C)C)N(C)C(=O)CN(C)C1=O` [[8-(2-Acetamidoethyl)-6,7-dihydro-MeBmt]-1-cyclosporin], for which the IC50 in experiment [1] (setting [7]) was less than 35 nM.
Regarding `C/C=C/C[C@@H](C)[C@@H](O)[C@H]1C(=O)N[C@@H](CC)C(=O)N(C)[C@H](C)C(=O)N(CC)[C@@H](C(C)C)C(=O)N[C@@H](C(C)C)C(=O)N(C)[C@@H](CC(C)C)C(=O)N[C@@H](C)C(=O)N[C@H](C)C(=O)N(C)[C@@H](CC(C)C)C(=O)N(C)[C@@H](CC(C)C)C(=O)N(C)[C@@H](C(C)C)C(=O)N1C` [Alisporivir], the EC50 in experiment [3] was less than 4 nM. Also, the figures for the IC50 in experiment [1] (setting [7]) and in experiment [4] were less than 35 nM and less than 4 nM, respectively.
`CC[C@@H]1NC(=O)[C@H]([C@H](O)[C@H](C)CCCCCCNC(C)=O)N(C)C(=O)[C@H](C(C)C)N(C)C(=O)[C@H](CC(C)C)N(C)C(=O)[C@H](CC(C)C)N(C)C(=O)[C@@H](C)NC(=O)[C@H](C)NC(=O)[C@H](CC(C)C)N(C)C(=O)[C@H](C(C)C)NC(=O)[C@H](CC(C)C)N(C)C(=O)[C@@H](CO)N(C)C1=O` [[8-(2-Acetamidoethyl)-6,7-dihydro-MeBmt]-1-[(R)-hydroxymethyl-Sar]-3-cyclosporin] (cyclo(A[dA][NMeL][NMeL][NMeV][NMeThr(4R-Me,4-(CH2)6NHAc)][Abu][dNMeS][NMeL]V[NMeL])): the IC50 in experiment [1] (setting [7]) is less than 35 nM.
In the case of `C/C=C/C[C@@H](C)[C@@H](O)[C@H]1C(=O)N[C@@H](CC)C(=O)N(C)CC(=O)N(C)[C@@H]([C@@H](C)CC)C(=O)N[C@@H](C(C)C)C(=O)N(C)[C@@H](CC(C)C)C(=O)N[C@@H](C)C(=O)N[C@H](C)C(=O)N(C)[C@@H](CC(C)C)C(=O)N(C)[C@@H](CC(C)C)C(=O)N(C)[C@@H](C(C)C)C(=O)N1C` [[N-MeIle]-4-cyclosporin (SDZ-NIM-811), N-MeIle-4-Cyclosporin], the IC50 in experiment [1] (setting [7]) fell in the range of 90 to 250 nM.
“[8-(2-Acetamidoethyl)-6,7-dihydro-MeBmt]-1-[(S)-(4-hydroxybutylthio)methyl-Sar]-3-[(γ-hydroxy)-N-MeLeu]-4-cyclosporin”: the IC50 in experiment [1] (setting [8]) is less than 35 nM.
On the same count and under the same terms, for `C/C=C/C[C@@H](C)[C@@H](O)[C@H]1C(=O)N[C@@H](CC)C(=O)N(C)[C@H](SCCN(CC)CC)C(=O)N(C)[C@@H](C(C)CC)C(=O)N[C@@H](C(C)C)C(=O)N(C)[C@@H](CC(C)C)C(=O)N[C@@H](C)C(=O)N[C@H](C)C(=O)N(C)[C@@H](CC(C)C)C(=O)N(C)[C@@H](CC(C)C)C(=O)N(C)[C@@H](C(C)C)C(=O)N1C` (stereo partly drawn) [(R)-2-(N,N-Diethylamino)ethylthio-Sar]-3-[N-MeIle]-4-cyclosporin] (cyclo(A[dA][NMeL][NMeL][NMeV][MeBmt][Abu][X1][NMeIle(3ξ)]V[NMeL])) the value was less than 35 nM.
As for `CC[C@@H]1NC(=O)[C@H]([C@H](O)[C@H](C)CCCCCCNC(C)=O)N(C)C(=O)[C@H](C(C)C)N(C)C(=O)[C@H](CC(C)C)N(C)C(=O)[C@H](CC(C)C)N(C)C(=O)[C@@H](C)NC(=O)[C@H](C)NC(=O)[C@H](CC(C)C)N(C)C(=O)[C@H](C(C)C)NC(=O)[C@H](CC(C)C)N(C)C(=O)[C@@H](C)N(C)C1=O` [[8-(2-Acetamidoethyl)-6,7-dihydro-MeBmt]-1-[(R)-Methyl]-3-cyclosporin] (cyclo(A[dA][NMeL][NMeL][NMeV][NMeThr(4R-Me,4-(CH2)6NHAc)][Abu][dNMeA][NMeL]V[NMeL])), in experiment [1] (setting [7]), the IC50 was less than 35 nM.
Consider `CC=CCC(C)C(O)C1C(=O)NC(CC)C(=O)N(C)C(CSCCCCO)C(=O)N(C)C(CC(C)(C)O)C(=O)NC(C(C)C)C(=O)N(C)C(CC(C)C)C(=O)NC(C)C(=O)NC(C)C(=O)N(C)C(CC(C)C)C(=O)N(C)C(CC(C)C)C(=O)N(C)C(C(C)C)C(=O)N1C` (centres unmarked) [STG-175], for which the EC50 is 0.6 nM in experiment [5] and 11.5 to 38.9 nM in experiment [6] (multi-genotype HCV GT1a to 4a, published, Gallay et al. 2016, read-out: anti-HCV activity EC50). For the same molecule, in experiment [6], the “cross-resistance with direct anti-viral agents (DAAs)” value was “No cross-resistance is observed”. The “viral replication rebound after cessation of drug treatment” value in experiment [6] (compared with Sofosbuvir) is “no viral replication rebound is observed”.
`C/C=C/C[C@@H](C)[C@@H](O)[C@H]1C(=O)N[C@@H](CC)C(=O)N(C)[C@H](CSCCCCO)C(=O)N(C)[C@@H](CC(C)(C)O)C(=O)N[C@@H](C(C)C)C(=O)N(C)[C@@H](CC(C)C)C(=O)N[C@@H](C)C(=O)N[C@H](C)C(=O)N(C)[C@@H](CC(C)C)C(=O)N(C)[C@@H](CC(C)C)C(=O)N(C)[C@@H](C(C)C)C(=O)N1C` [[(S)-(4-Hydroxylbutylthio)methyl-Sar]-3-[(γ-hydroxy)-N-MeLeu]-4-cyclosporin] came in with a half-maximal effective concentration (EC50) in experiment [3] of less than 4 nM. Further, the IC50 in experiment [4] was less than 4 nM.
